Among the test systems are SNB-75 CNS; HT29 colon; IGROV1 ovarian; A549 NSCLC; BT-549 breast; MCF7 breast; SN12C renal; SR leukemia; HCT-15 colon; SF-268 CNS.
Common to all, as to assay: NCI anticancer screen, dose series, 48 h

Values joined by “and” are separate entries in the source; they are usually repeats but may differ in a detail not shown here. Equal values may be shown once.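 These data come from cells grown in 96-well plates and exposed to compound for 48 hours at five concentrations. GI50: concentration for 50% inhibition of growth. TGI is the concentration that stops growth completely.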 A value given as a limit tells only on which side of the number the result lay.

As for `CNS(=O)(=O)c1ccccc1C(=N)c1ccccc1`, the TGI with SNB-75 CNS, with HT29 colon, in the test with IGROV1 ovarian, in the test with A549 NSCLC, in the test on BT-549 breast and in the test with MCF7 breast was above 100 µM in each case. Moreover, the TGI in the test with SN12C renal, in the test on SR leukemia, in the test with HCT-15 colon and in the test on SF-268 CNS was above 100 µM in each case.

Consider `O=C1c2ccccc2C(=O)c2c(NC(=O)C(Cl)CCl)cccc21` (stereo not given), for which the TGI was found to be 32.4 µM with SNB-75 CNS; 10.5 µM in the test on HT29 colon; 20 µM in the test on IGROV1 ovarian; 47.6 µM in the test with A549 NSCLC; 31.2 µM in the test on BT-549 breast; 2.47 µM in the test with MCF7 breast. Also, the TGI in the test with SN12C renal came to 21.4 µM; with SR leukemia it was 0.347 µM; with HCT-15 colon it was 23.4 µM; in the test with SF-268 CNS it was 25 µM.

Take `CC(C)[C@](O)(C(=O)OCC1=CC[N+]2([O-])CC[C@@H](O)[C@@H]12)[C@H](C)O` (stereo not given in full): the TGI with SNB-75 CNS, in the test on HT29 colon, in the test on IGROV1 ovarian, with A549 NSCLC, in the test on BT-549 breast and in the test with MCF7 breast was above 10000 µM throughout. The TGI with SN12C renal, in the test with SR leukemia, in the test with HCT-15 colon and in the test with SF-268 CNS was above 10000 µM in each case.

For the compound `[C-]#[O+].[C-]#[O+].[Ir].[O-]c1ccc2ccccc2c1N=Nc1ccccc1`, the TGI in the test on SNB-75 CNS was found to be 59.6 µM; in the test on HT29 colon, 20.6 µM; in the test on IGROV1 ovarian, 37.1 µM; in the test with A549 NSCLC, 70.1 µM; with BT-549 breast, 40.1 µM; in the test with MCF7 breast, 21 µM. Also, the TGI is 23.9 µM in the test on SN12C renal, above 56.4 µM in the test with SR leukemia, 19.8 µM in the test on HCT-15 colon and 61.5 µM in the test on SF-268 CNS. For the same compound, the GI50 with SF-268 CNS is 22.7 µM.

As for `CN1C(=O)N(C)C2C1NN=c1s/c(=C\c3c[nH]c4ccccc34)c(=O)n12` (stereo not given), the GI50 is below 0.0158 µM in the test with SNB-75 CNS; 0.0377 µM in the test on HT29 colon; 0.0654 µM in the test with IGROV1 ovarian; 0.109 µM in the test on A549 NSCLC; 0.0557 µM in the test on BT-549 breast; 0.0338 µM in the test on MCF7 breast. Further, the GI50 in the test on SN12C renal is 0.0714 µM; in the test on SR leukemia it was 0.0345 µM; in the test on HCT-15 colon, 0.0365 µM; in the test on SF-268 CNS it was 0.588 µM. For the same compound, the TGI with HT29 colon, with IGROV1 ovarian, in the test with A549 NSCLC, in the test with BT-549 breast, in the test on MCF7 breast and in the test with SN12C renal was above 100 µM each time. Also, the TGI in the test on SR leukemia, with HCT-15 colon and with SF-268 CNS was above 100 µM in each case.

Consider `CC(N)(Cc1c[nH]c2ccccc12)C(=O)O` (stereo not given), for which the GI50 in the test with SNB-75 CNS, in the test with HT29 colon, with IGROV1 ovarian, in the test on A549 NSCLC, in the test with BT-549 breast and with MCF7 breast was above 2500 µM each time. Also, the GI50 with SN12C renal, in the test with SR leukemia, in the test with HCT-15 colon and with SF-268 CNS was above 2500 µM in each case. Besides, the TGI in the test on SNB-75 CNS, in the test with HT29 colon, in the test with IGROV1 ovarian, in the test on A549 NSCLC, in the test with BT-549 breast and in the test on MCF7 breast was above 2500 µM each time. The TGI in the test on SN12C renal, in the test with SR leukemia, in the test on HCT-15 colon and with SF-268 CNS was above 2500 µM each time.

On to `COc1ccc(-c2ccc3ncc4c(c3c2)n(-c2ccc(N3CCNCC3)c(C(F)(F)F)c2)c(=O)n4C)cn1`, for which the GI50 is < 0.01 µM and 0.00263 µM with SNB-75 CNS; < 0.01 µM and 0.00658 µM with HT29 colon; < 0.01 µM and 0.0016 µM with IGROV1 ovarian; < 0.01 µM and 0.00607 µM in the test with A549 NSCLC; < 0.01 µM and 0.00552 µM with BT-549 breast; 0.0035 µM in the test on MCF7 breast. For the same compound, the GI50 in the test on SN12C renal is < 0.0112 µM and 0.00382 µM; in the test on SR leukemia it was 0.02 µM and 0.00681 µM; with HCT-15 colon, < 0.0104 µM and 0.0127 µM; in the test with SF-268 CNS, < 0.01 µM and 0.00867 µM. Moreover, the TGI in the test on SNB-75 CNS is 0.0129 µM and 0.0255 µM; in the test on HT29 colon, 0.122 µM and 0.393 µM; with IGROV1 ovarian it was 0.0332 µM and 0.0162 µM; with A549 NSCLC, 0.153 µM and 0.329 µM; in the test on BT-549 breast it was 0.0556 µM and 0.0647 µM; in the test with MCF7 breast, 0.0793 µM. The TGI with SN12C renal was 1.56 µM and 0.381 µM; in the test with SR leukemia, 0.266 µM and 0.365 µM; in the test with HCT-15 colon, 0.137 µM and 0.186 µM; with SF-268 CNS it was 0.755 µM and 1.22 µM.

`CSC1=Nc2c(c(C)c(-c3ccccc3)n2CCCCl)C2=NC(=O)CN12`: the GI50 in the test with SNB-75 CNS is 2.83 µM; in the test with HT29 colon, 3.85 µM; in the test with IGROV1 ovarian, 3.59 µM; with A549 NSCLC, 7.68 µM; in the test on BT-549 breast, 4.93 µM; in the test on MCF7 breast, 3.42 µM. Moreover, the GI50 in the test with SN12C renal is 6.28 µM; with SR leukemia, 3.45 µM; in the test on HCT-15 colon, 4.11 µM; with SF-268 CNS, 8.57 µM. The TGI with SNB-75 CNS stood at 11.6 µM; in the test with HT29 colon, 19.5 µM; in the test on IGROV1 ovarian it was 21.1 µM; in the test on A549 NSCLC it was 65.8 µM; with BT-549 breast, 35.6 µM; in the test on MCF7 breast it was 16.5 µM. Besides, the TGI is 39 µM in the test with SN12C renal, above 100 µM in the test with SR leukemia, 21.4 µM with HCT-15 colon and 47.6 µM in the test with SF-268 CNS.

As to `NC(=O)c1ccc2nc(-c3ccc(C4(N)CCC4)cc3)c(-c3ccccc3)n2n1`, the GI50 in the test with SNB-75 CNS was 0.0922 µM; with HT29 colon it was 1.5 µM; with IGROV1 ovarian, 0.0886 µM; in the test with A549 NSCLC, 11.7 µM; in the test on BT-549 breast, 1.28 µM; in the test with MCF7 breast, 0.158 µM. For the same compound, the GI50 with SN12C renal was 12 µM; with SR leukemia, 7.65 µM; with HCT-15 colon it was 11.5 µM; with SF-268 CNS it was 13.1 µM. Moreover, the TGI with SNB-75 CNS was determined as 5.21 µM; in the test with HT29 colon, 25.7 µM; in the test on IGROV1 ovarian it was 10.7 µM; with A549 NSCLC it was 28.5 µM; in the test on BT-549 breast, 14.5 µM; with MCF7 breast it was 17.5 µM. For the same compound, the TGI was 27.5 µM in the test on SN12C renal, 31.2 µM in the test with SR leukemia, 33.1 µM in the test on HCT-15 colon and 30.1 µM in the test with SF-268 CNS.
